# Earlier results as cited in patent publication US10729634B2, “Sex hormone-binding globulin for use as a medicament” (FUNDACIÓ HOSPITAL UNIVERSITARI VALL D'HEBRON—INSTITUT DE …, priority 2013, dated 2020).
# Key:
# [1] = cited from earlier work
# [2] = system: HepG2 hepatoblastoma cells; settings: positive control, 3 μM; cited from earlier work
structure (smiles),measurement,setting,value
C[C@H]1CNCCc2ccc(Cl)cc21 [Lorcaserin],average weight loss greater than placebo,[1]; over a year,3.1 kg
same,"average weight loss greater than placebo, of body mass",[1]; over a year,3%
CC(C)NCC(O)c1ccc(O)c(O)c1 (stereo not shown) [Isoproterenol],lipolysis,[2],induces lipolysis
CCCCCCCCCCC[C@@H](C[C@@H]1OC(=O)[C@H]1CCCCCC)OC(=O)[C@H](CC(C)C)NC=O [orlistat],side effects,[1]; in vivo,associated with gastrointestinal side effects
